Here are results for 4 molecules from publication PMC7363796, “Blood pressure-lowering effects of a Bowman-Birk inhibitor and its derived peptides in normotensive and hypertensive rats” (Scientific Reports, 2020).

Where two headings read alike, the source gives them in different places. Where a SMILES comes first, the peptide text is derived from it. Bridges are numbered along the chain shown (N, C = ends).

In experiment [1] the target is T1, chymotrypsin (Bos taurus, UniProt P00766). As to conditions: literature value; read-out: Inhibition constant Ki against chymotrypsin; cited from earlier work. How it is done:
(§1) The inhibitory activities of BTCI and its derived peptides, PepTry and PepChy, were evaluated through the residual enzymatic activity of serine proteases trypsin and chymotrypsin in the presence of increasing concentrations of BTCI and its derived peptides (Fig. 2A–D). In the absence of BTCI and peptides, the proteases cleave BAPNA/GPNA substrates releasing the yellow-colored p-nitroanilide product corresponding to an enzymatic activity of 100%[39]. In the presence of BTCI and peptides, a gradual decay of the protease activities is observed. BTCI at approximately 6 µM and 40 µM inhibits trypsi ...

Experiment [2] has as its target T2, trypsin (Bos taurus, UniProt P00760).
T2 sequence (P00760 24-246): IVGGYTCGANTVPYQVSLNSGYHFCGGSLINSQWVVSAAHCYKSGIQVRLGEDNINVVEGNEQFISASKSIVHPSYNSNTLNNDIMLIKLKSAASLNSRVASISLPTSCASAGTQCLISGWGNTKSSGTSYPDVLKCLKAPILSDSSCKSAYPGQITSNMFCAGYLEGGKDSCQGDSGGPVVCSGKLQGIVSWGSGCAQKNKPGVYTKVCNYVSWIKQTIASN
The experiment in a line: Inhibition of trypsin, residual activity with BAPNA substrate. It counts as biochemical. As to conditions: pH 8.2, from fitted inhibition curves (GRAFIT), read-out: Inhibition constant Ki against trypsin. Here is the method:
(§2) The inhibitory activities of BTCI, PepTry and PepChy against trypsin and chymotrypsin activities were assayed using the substrates Na-benzoyl-DL-arginine-p-nitroanilide (BAPNA) and n-glutaryl-L-phenylalanine-p-nitroanilide (GPNA), respectively (Sigma)[19],[39]. Enzymatic assays were performed in 50 mM Tris-HCl, CaCl2 20 mM pH 7.6 for chymotrypsin or pH 8.2 for trypsin. Forty μL of BTCI and PepTry (0 to 20 μM) and BTCI and PepChy (0 to 50 μM) were incubated with 40 μL of trypsin (2.57 µM) or chymotrypsin (28.60 µM), respectively, in a 96-well plate at room temperature for 15 minutes. Then, 200 μL BAPNA (0.064 mg/mL) or GPNA (0.8 mg/mL) were added. The reaction was stopped by addition of 30 μL 30% acetic acid (v/v). Enzymatic hydrolysis of the substrate was evaluated by recording the absorbance at 410 nm. The residual activities of the enzymes, in the presence of inhibitors, were estimated considering the free enzyme activity to be 100%. Inhibition constants of the enzyme-inhibitor complexes, Ki, were calculated from fitted inhibition curves[70] using the GRAFIT program version 3 (Erithacus Software, Horley, Surrey, United Kingdom).

For experiment [3], the target named is T3, angiotensin converting enzyme (ACE) (Oryctolagus cuniculus, UniProt P12822).
T3 construct: ACE stock solution was obtained from rabbit lung; from tissue; host or cells: rabbit lung
T3 sequence (P12822 34-1310): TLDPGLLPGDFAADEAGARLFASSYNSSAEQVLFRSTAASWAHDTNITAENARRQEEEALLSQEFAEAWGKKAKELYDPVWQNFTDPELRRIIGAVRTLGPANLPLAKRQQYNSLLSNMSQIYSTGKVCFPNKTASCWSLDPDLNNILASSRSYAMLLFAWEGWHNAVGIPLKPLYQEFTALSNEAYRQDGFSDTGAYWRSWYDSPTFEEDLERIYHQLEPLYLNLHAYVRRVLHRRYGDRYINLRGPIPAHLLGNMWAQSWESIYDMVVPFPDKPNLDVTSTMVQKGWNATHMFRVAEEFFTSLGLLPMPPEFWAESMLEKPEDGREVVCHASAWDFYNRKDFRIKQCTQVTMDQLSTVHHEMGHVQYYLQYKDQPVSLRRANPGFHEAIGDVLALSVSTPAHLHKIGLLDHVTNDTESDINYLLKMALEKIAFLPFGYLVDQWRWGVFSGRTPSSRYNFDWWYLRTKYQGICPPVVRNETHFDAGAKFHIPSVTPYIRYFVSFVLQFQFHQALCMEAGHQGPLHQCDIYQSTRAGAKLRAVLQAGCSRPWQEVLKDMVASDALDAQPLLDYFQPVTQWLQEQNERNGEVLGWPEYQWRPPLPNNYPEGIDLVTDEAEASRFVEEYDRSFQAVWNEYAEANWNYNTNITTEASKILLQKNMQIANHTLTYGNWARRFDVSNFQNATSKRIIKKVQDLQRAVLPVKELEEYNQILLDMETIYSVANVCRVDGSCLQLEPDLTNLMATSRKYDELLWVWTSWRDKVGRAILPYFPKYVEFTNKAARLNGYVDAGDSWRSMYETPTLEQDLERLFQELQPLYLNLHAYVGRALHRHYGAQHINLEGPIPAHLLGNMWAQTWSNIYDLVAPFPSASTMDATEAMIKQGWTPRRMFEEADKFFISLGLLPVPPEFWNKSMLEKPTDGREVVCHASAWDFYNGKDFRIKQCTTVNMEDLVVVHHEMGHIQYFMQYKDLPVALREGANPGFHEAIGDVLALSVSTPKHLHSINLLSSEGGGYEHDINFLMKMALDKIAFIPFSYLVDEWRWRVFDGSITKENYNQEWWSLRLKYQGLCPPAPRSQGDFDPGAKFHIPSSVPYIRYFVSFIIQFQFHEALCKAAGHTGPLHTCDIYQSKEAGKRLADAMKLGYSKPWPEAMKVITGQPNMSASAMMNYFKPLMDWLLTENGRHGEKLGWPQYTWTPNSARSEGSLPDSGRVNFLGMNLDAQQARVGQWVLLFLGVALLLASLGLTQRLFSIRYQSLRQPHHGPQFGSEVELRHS
The experiment in a line: ACE inhibition assay with HHL substrate (Hayakari method). It counts as biochemical. Conditions: rabbit lung ACE; for inhibition at 100 µM: pH 8.3, read-out: Highest ACE-inhibitory value; for IC50: sodium phosphate pH 8.3, 37 °C, 10 min pre-incubation, 45 min reaction, absorbance 382 nm, non-linear fit, triplicate, read-out: IC50 against ACE. How it is done: Inhibitory activities of peptides PepTry and PepChy and BTCI against ACE were performed according to Hayakari, et al. (1978) using the synthetic substrate hippuryl-L-histidyl-L-leucine (HHL)[71]. Briefly, ACE stock solution was obtained from rabbit lung in 10 mM sodium phosphate buffer, pH 8.3, and BTCI and peptides stock solutions were prepared in MilliQ water (m/v). Concentration of BTCI was estimated from spectrophotometric absorbance at 280 nm based A2801% = 8.23. Concentration of PepTry and PepChy were estimated according to Eq. 1. BTCI and peptides were diluted in 10 mM sodium phosphate buffer pH 8.3 to obtain concentrations ranging from 0 to 600 µM. Ten µL peptide solutions were pre-incubated with 10 µL of ACE containing 0.5 M NaCl at 37 °C for 10 min. […] The enzymatic reaction was terminated by adding a mixture containing 550 µL of 100 mM sodium phosphate pH 8.3 and 332.5 µL of 3% (m/v) 2,4,6-trichloro-s-triazine (TT) (in dioxane). The mixture was incubated for 5 min. at room temperature and then centrifuged at 1000 g for 10 min at 4 °C. The absorbance values of supernatants containing hippuric acid liberated from HHL were recorded at 382 nm using the Jasco Spectrophotometer V-530 (Jasco Analytical Instruments, Tokyo, Japan). IC50 values for peptides and BTCI were calculated from nonlinear regression curve of ACE residual activity (%) versus inhibitor concentration (µM) (BTCI, PepTry and PepChy) using Origin software (OriginLab Corporation, USA). The control was prepared containing only the substrate without enzyme solution. Assays were performed in triplicate.

Experiment [4] has as its target T1, chymotrypsin. Nature of the experiment: Inhibition of chymotrypsin, residual activity with GPNA substrate. Format: biochemical. As to conditions: pH 7.6, from fitted inhibition curves (GRAFIT), read-out: Inhibition constant Ki against chymotrypsin. Here is the method: as §2
Experiment [5] deals with T2, trypsin. As to conditions: literature value; read-out: Inhibition constant Ki against trypsin; cited from earlier work. How it is done:
as §1

By Ki is commonly meant the equilibrium dissociation constant of an inhibitor or competing ligand from its target. For the molecule “BTCI: Bowman-Birk protease inhibitor purified from Vigna unguiculata (Cowpea) seeds; small protein, 9071 Da, seven disulfide bonds”, the inhibitory constant (Ki) with chymotrypsin [1] was 0.115 µM.

For orientation: IC50 means the point on the concentration scale where inhibition reaches its midpoint. As for `CC[C@H](C)[C@@H]1NC(=O)[C@H](CO)NC(=O)[C@H](CCCCN)NC(=O)[C@H]([C@@H](C)O)NC(=O)[C@@H](N)CSSC[C@@H](C(=O)O)NC(=O)[C@H](CCC(N)=O)NC(=O)[C@@H]2CCCN2C(=O)[C@@H]2CCCN2C1=O` [PepTry] (H-CTKSIPPQC-OH; disulfide 1-9), at trypsin [2], the Ki is 0.119 µM. Further, in experiment [3], the inhibition at 100 µM was about 98% and the IC50 stood at 24.4 ± 1.1 µM.

Take `CC[C@H](C)[C@@H]1NC(=O)[C@H](CO)NC(=O)[C@H](Cc2ccccc2)NC(=O)[C@H]([C@@H](C)O)NC(=O)[C@@H](N)CSSC[C@@H](C(=O)O)NC(=O)[C@H](CCC(N)=O)NC(=O)[C@H](C)NC(=O)[C@@H]2CCCN2C1=O` [PepChy] (H-CTFSIPAQC-OH; disulfide 1-9): the Ki at chymotrypsin [4] was found to be 121 µM. Besides, in experiment [3], the inhibition at 100 µM is about 98% and the IC50 worked out at 24.7 ± 1.1 µM.

B1: BTCI: Bowman-Birk protease inhibitor purified from Vigna unguiculata (Cowpea) seeds; small protein, 9071 Da, seven disulfide bonds (protein)
chain: SGHHEDSTDEASESSKPCCDRCECTKSIPPQCRCSDVRLNSCHSACKSCACTFSIPAQCFCGDINDFCYKPCKSSHSDDDDWN
modifications: seven intramolecular disulfide bonds; native protein purified from seeds (9071.6 Da)
Consider B1, for which the Ki with trypsin [5] was 0.0059 µM. Also, the half-maximal inhibitory concentration (IC50) in experiment [3] was 54.6 ± 2.9 µM.
